In patent US20220175701A1, “TREATMENT OF MAJOR DEPRESSIVE DISORDER AND SUICIDAL IDEATIONS THROUGH STIMULATION OF HIPPOCAMPAL NEUROGENESIS UTILIZING PLANT-BASED APPROACHES” (THERAPEUTIC SOLUTIONS INTERNATIONAL, INC., priority 2020, published 2022):
Like-named read-outs stand apart in the source and are kept apart here.

Key:
macrophage foam cells = conditions: cited from earlier work
[1] = test system: lipopolysaccharide-activated macrophages; conditions: cited from earlier work
[2] = test system: mice with experimental colitis; conditions: cited from earlier work
[3] = test system: rats subjected to myocardial ischemia and reperfusion; conditions: EGCG 10 mg/kg intravenously then 10 mg/kg/h infusion; cited from earlier work
[4] = test system: BALB/c mice exposed to random stress; experiment: Endogenous neurogenesis in stressed mice, BRDU incorporation assessed by histology; type: in vivo; conditions: stressed BALB/c mice treated daily; FIG. 1
Procedure: FIG. 1 is a bar graph showing the results of stressed mice that were treated with Fluoxetine or QuadraMune™ daily. Assessment of endogenous neurogenesis was performed by administering BRDU and assessment of incorporation by histology.
BALB/c mice where exposed to random stress 4 times a day by spinning by the tail for 15 seconds. Controls where not stressed. Stressed mice where treated with Prozac or QuadraMune™ daily. Assessment of endogenous neurogenesis was performed by administering BRDU and assessment of incorporation by histology.

[5] = cited from earlier work
[6] = test system: primary peritoneal macrophages; conditions: cited from earlier work
[7] = test system: BALB/c mice with LPS-induced ARDS; conditions: cited from earlier work
[8] = test system: LPS-challenged macrophages; conditions: pre-incubated 6 h with SFN 0 to 50 μM, then LPS 24 h; cited from earlier work
[9] = test system: lipopolysaccharide-induced inflammatory reactions; conditions: cited from earlier work
[10] = test system: mice challenged with endotoxin (LPS 0111:B4) or live Escherichia coli; conditions: cited from earlier work; for concentrations of IL-la: controls 1187.0±278.64
apoE(−/−) mice = conditions: PT injection; cited from earlier work
[11] = test system: human umbilical vein VECs (HUVECs); conditions: cited from earlier work
cancer patients = experiment: Pterostilbene (nanostilbene) in cancer patients, NK cell activity and interferon gamma; type: in vivo, human; conditions: administered in the form of nanostilbene
Excerpt: Additionally, pterostilbene has shown to inhibit inflammatory cytokines associated with ARDS.

[12] = sulforaphane 50 mg/kg, LPS 5 mg/kg

In the case of `O=C(O[C@@H]1Cc2c(O)cc(O)cc2O[C@@H]1c1cc(O)c(O)c(O)c1)c1cc(O)c(O)c(O)c1` [EGCG, Epigallocatechin Gallate], the “TNF-α-induced nuclear factor-κB (NF-κB) activity” value (macrophage foam cells) is listed as “inhibition”, the “TNF-α-induced downregulation of ABCA1 and decrease in cholesterol efflux to apoA 1” value (macrophage foam cells; pretreatment with EGCG) is listed as “attenuated” and the “iNOS activity in soluble extracts” value ([1]; EGCG 5 and 10 microM for 6-24 hr, vs macrophages without EGCG) is listed as “significantly lower”. The NO production ([1]; cells cotreated with EGCG and LPS) was “Inhibition”, the “activation of nuclear factor-kappaB” value ([1]; electrophoretic mobility shift assay) was “blocked” and the “disease activity index (DAI) and spleen index (SI)” value ([2]; 50 and 100 mg/kg/day EGCG groups vs MD group) was “decreased”. For the same molecule, the “HIF-1α and STATS protein expression in the colon” value ([2]; mouse, in vivo) was “decreasing”, the “plasma levels of IL-10 and TGF-β1” value ([2]; mouse, in vivo) was “increasing” and the “release of IL-6 and IL-17” value ([2]; mouse, in vivo) was “reduce”. For the same molecule, the “myocardial damage and myeloperoxidase activity” value [3] was “reduced” and the “plasma IL-6 and creatine phosphokinase levels” value [3] was “decreased”.

In the case of `CNCCC(Oc1ccc(C(F)(F)F)cc1)c1ccccc1` (stereo not drawn) [Prozac, Fluoxetine], the “endogenous neurogenesis (BRDU incorporation by histology)” value [4] is reported as “Augmented neurogenesis”.

For `Oc1ccc(C=Cc2cc(O)cc(O)c2)cc1` [resveratrol, reference compound], the bioavailability ([5]; animal studies) is listed as 20%.

For `C[S+]([O-])CCCCN=C=S` (stereo not drawn) [sulforaphane, 1-isothiocyanato-4-(methylsulfinyl)-butane], the HO-1 expression ([6]; LPS-stimulated Nrf2 (+/+) primary peritoneal macrophages) is listed as “significantly augmented”, the anti-inflammatory effect ([6]; Nrf2 (−/−) primary peritoneal macrophages) is listed as “attenuated” and the “LPS-stimulated mRNA expression, protein expression and production of TNF-alpha, IL-1beta, COX-2 and iNOS” value ([6]; pretreatment, Nrf2 (+/+) primary peritoneal macrophages) is listed as “potently inhibited”. For the same molecule, the “serum levels of interleukin-6 (IL-6) and tumor necrosis factor-α (TNF-α)” value ([7]; ELISA, sulforaphane 50 mg/kg) was “significantly decreased”, the “Nrf2/antioxidant response element (ARE) pathway” value ([7]; pre-treatment) was “activated” and the “lactate dehydrogenase (LDH) activity” value [7, 12] was “significantly decreased”. The “wet-to-dry ratio of the lungs” value [7, 12] was “significantly decreased”, the “nuclear factor-κB protein expression” value ([7]; sulforaphane 50 mg/kg) was “significantly decreased” and the “prostaglandin E2 (PGE2) production, COX-2 and MMP-9 protein expression, iNOS activity” value ([7]; sulforaphane 50 mg/kg) was “significantly inhibited”. For the same molecule, the “expression of NO and cytokines” value [8] was “able to prevent”.

In the case of `CC1=CC(=O)C(C(C)C)=CC1=O` [thymoquinone], the “concentration of nitric oxide” value [9] is listed as “reduced significantly”, the “concentrations of IL-la” value ([10]; 0.75 mg/kg thymoquinone dose) is listed as 310.8 ± 70.93 pg/mL and the IL-10 levels ([10]; 0.75 mg/kg thymoquinone, controls 5505.2±333.96) is listed as 2885.0 ± 553.98 pg/mL. The “concentrations of IL-la” value ([10]; 1 mg/kg group) was 428.3 ± 71.32 pg/mL, the “levels of TNF-α and IL-2” value ([10]; P values=0.1817 and 0.0851) was “relatively lower levels” and the “renal and hepatic biomarker profiles” value ([10]; mouse, in vivo) was “improved”. For the same molecule, the reduced mortality ([10]; thymoquinone before endotoxin or E. coli sepsis in mice) was 80-90%.

In the case of “trans-3,5-dimethoxy-4-hydroxystilbene [pterostilbene]”, the “number of TUNEL-positive cells in the endothelium of atherosclerotic plaque” value (apoE(−/−) mice) is listed as “strongly decreased”, the “oxLDL-induced cell shrinkage, chromatin condensation, nuclear fragmentation and cell apoptosis” value ([11]; HUVECs, oxLDL 200 μg/ml) is listed as “protected against such injuries” and the “expression of lectin-like oxLDL receptor-1 (LOX-1)” value ([11]; in vitro and in vivo) is listed as “inhibited”. For the same molecule, the NK cell activity (cancer patients) was “increased”, the interferon gamma production (cancer patients) was “increased” and the bioavailability ([5]; rat, in vivo) was 80%.
